# Test results from a melting point compilation (Tetko et al.; mined from patent text by program, amines drawn as free bases though some values may be those of a salt).
row,SMILES,melting point [°C]
1,COC(F)(F)c1nc2nc(C)c(F)cc2cc1C(=O)C1C(=O)CCCC1=O,143 to 146
2,CCc1ccc(C2C(C#N)=C(CC(C)C)NC(C)=C2C(=O)OC(C)(C)C)cc1 (stereo not given),165 to 166
3,Cc1ccc(S(=O)(=O)n2ccc3c(Cl)c(F)cnc32)cc1,125
4,COC(=O)CC(C#Cc1cccc(-c2noc(C)n2)c1)c1ccc(OC)c(OC2CCCC2)c1 (racemic),66 to 68
5,CC(C)(C)c1ccc(CCC(=O)CC2CCCCC2)cc1NC(=O)CC1c2ccccc2Oc2ccccc21,154 to 155
6,C=Cc1ccc2nnn(OS(=O)(=O)c3ccc(Cl)cc3)c2c1,125
7,CN(C)C1CCN(C(=O)C2CCC(Nc3nccc(-n4ccc5c(OCCCS(C)(=O)=O)cccc54)n3)CC2)CC1 (stereo not given),182 to 183
8,CCSc1ccc(Oc2ccc(C(=O)c3ccccc3)cc2)nc1C#N,88 to 90
9,Cc1cc2oc(=O)c(NC(N)=O)c(-c3ccccc3C)c2cc1Cl,240 to 242
10,C[C@H]1CCCC(C)(C)[C@@H]1C(=O)c1ccoc1,114 to 116
11,O=c1cc(-c2ccc(OCc3ccccc3)c(OCc3ccccc3)c2)oc2cc(OCCBr)ccc12,167 to 168
12,Fc1ccc(OCCCc2c[nH]cn2)cc1,135 to 137
13,O=C(/C=C/C=C/c1ccccc1)NCCSCCC(=O)NO,158 to 160
14,CCOC(=O)C(C)=NNc1ccc(C(O)(C(F)(F)F)C(F)(F)F)cc1,167 to 168
15,NC(=O)c1c(Cl)cc(Cl)c(C(=O)O)c1Cl,280
16,C[Si](C)(C)CCOCn1c(Br)nc(C#N)c1C#N,47 to 52
17,O=C(Nc1cc2ccccc2cn1)c1nccnc1NCc1ccncc1,139
18,CN(c1ccc(CCNCC(O)COc2ccc(OCc3ccccc3)cc2)cc1)C1SC(=O)NC1=O (stereo not given),51 to 53
19,CCOC(=O)C1=C(N)OC(C)=C(C(C)=O)C1c1cccc([N+](=O)[O-])c1 (stereo not given),181
20,COC(=O)c1cc(-c2ccc(F)c(C)c2)nn(Cc2ccccc2)c1=O,109 to 110
21,C[Si](C)(C)OCCOC(=O)c1ccccc1S(N)(=O)=O,72 to 76
22,O=C(OC1CCCC1)c1ncn2c1[C@@H]1CCN1C(=O)c1c(I)cccc1-2,184 to 185
23,CCC1C(=O)c2cc(OCC(=O)O)c(C)c(C)c2C1=O (stereo not given),187 to 193
24,Cc1ccc(S(=O)(=O)N2CC(CO)(CO)C2)cc1,148 to 150

row,SMILES,melting point [°C]
1,CCOc1cc(-c2cc(C(F)(F)F)n3ncc(C(=O)Nc4cccc(S(=O)(=O)NC(C)(C)CO)c4)c3n2)ccc1C(F)(F)F,268
2,CCCCCCCCCC(=O)Nc1ccc(S(=O)(=O)Nc2nnc(CC(=O)OCC)s2)cc1,89 to 90
3,COc1ccc(-c2ncc(Cl)nc2-c2ccc(OC)cc2)cc1,126 to 127
4,CC(=O)c1ccc(-c2nccn2C)cc1,88 to 93
5,O=C1CC2OC(CS(=O)c3ccccc3)CN12 (racemic),119 to 120
6,Nc1c(Cl)cc(C(O)CNCCCCCOCCc2ccc(F)cc2)cc1Cl (stereo not given),75 to 76
7,CON=Cc1nc2c(N)nc3ccccc3c2n1CC(C)C,181 to 183
8,N#Cc1ccccc1COc1cccc(Cl)c1,56
9,CC(C)OCCNc1ccc(C(=O)N2CCN(CCc3ccc(Cl)cc3)CC2)cc1,130 to 132
10,N#CNC(=NC1CCN(Cc2ccccc2)CC1)NC1Cc2ccccc2C1,138 to 140
11,CCOC(=O)C(C#N)=Cc1cc(O)c(O)c([N+](=O)[O-])c1,205 to 210
12,COc1cccc(Oc2ccc(CCNc3ncnc4nccnc34)cc2)n1,152 to 153
13,Cc1cc(NNC(=O)OC(C)(C)C)nnc1-c1cccc([N+](=O)[O-])c1,160 to 162
14,CC(C)CNC(=O)COC1c2ccccc2C(=O)N1c1ccc2ccc(Cl)nc2n1 (stereo not given),146
15,CCCCCCCCOc1ccc(C=[N+]([O-])C(C)(C)C)c(F)c1,35.6
16,COc1ccc2nc(C(F)(F)F)c(C(=O)O)c(O)c2c1,256
17,COc1nc2ccc(Cl)cc2nc1Cl,113 to 114
18,Cc1ccccc1C=CCC(CCC(=O)O)(C(=O)C=Cc1ccc(Cl)cc1)c1ccccc1 (stereo not given),60 to 80
19,CCCC1CCc2c(c(F)c(F)c3oc(C)cc23)O1 (stereo not given),75
20,CCOC(=O)c1cnc2n(c1=O)CCC(C)C2=NNc1ccccc1 (stereo not given),108 to 110
21,Cc1ccc(S(=O)(=O)NC(=O)OCCc2ccc(-n3c(CCCc4cccnc4)nc4cc(C(F)(F)F)c(Cl)cc43)cc2)cc1,90 to 95
22,Cn1c(Br)c(Br)c(Br)c1C#N,115 to 119
23,CNC(=O)C[C@@H](c1ccccc1)c1c[nH]c2cccc(OC)c12,178 to 181
24,Clc1ccc(Nc2nc3ccccc3c3[nH]c(C4CCCC4)nc23)cc1Cl,114 to 115

row,SMILES,melting point [°C]
1,C/C(=C\c1ccc(OCCN(C)C)cc1)c1ccc2c(c1)SCC(C)(C)CS2,46 to 47
2,Clc1cccc(Nc2ncnc3[nH]nc(NCc4ccc(-c5ccccc5)cc4)c23)c1,250 to 252
3,CCCCCCCCCN1C(=O)C=CC1=O,45 to 47
4,C=C(C)C(=O)c1cn2c(C)c(CC)c(SC)nc2n1,136 to 137
5,CCCOc1n[nH]c(=O)n1C1CC1,105 to 106
6,COc1ncc(OC)c(NN)n1,115 to 117
7,O=C(NCCCc1ccncc1)N(CCCC12CC3CC(CC(C3)C1)C2)CC(F)(F)F,88.9 to 90
8,CN1c2ccc(C=C(c3ccccc3)c3ccccc3)cc2S(=O)(=O)c2cc(C=C(c3ccccc3)c3ccccc3)ccc21,246 to 252
9,NS(=O)(=O)c1ccc(NC(=O)Nc2ccccc2-c2ccccc2)cc1,229 to 231
10,COc1ccc2c(c1)CCC(c1ccccc1)=C2c1ccc(O)cc1,158 to 162
11,O=C1c2ccccc2C(=O)N1CCCS(=O)(=O)c1ccccc1,126 to 127
12,FC(F)(F)c1ccc(Cn2cnc3c(-c4ccco4)ncnc32)cc1,159 to 161
13,COc1ccccc1-c1nc2cc(NC(=O)OC(C)(C)C)ccn2n1,203
14,OCCCN1CC=C(c2cn(-c3ccc(F)cc3)c3ccc(C(F)(F)F)cc23)CC1,173 to 175
15,CCN(CC)c1ccc(N)cc1C#N,63 to 66
16,CC(=O)NCCCC(=NNC(N)=S)c1ccccc1,74 to 83
17,CC(=O)C1CCC2C3CCC4CC(O)C(N5CCOC(C)(C)C5)CC4(C)C3C(O)CC12C (stereo not given),182 to 185
18,Cc1[nH]c(=O)c(C#N)cc1-c1ccccc1,280 to 290
19,CCN(SN(C)C=Nc1ccc(Cl)cc1C)c1ccccc1,51.5 to 53
20,Cc1cc(C)c2c(=O)[nH]c(-c3cc(C)c(OCCN4CCCC4)c(C)c3)nc2c1,181 to 182
21,Nc1nc(Cl)c2ncn(OCC(O)CO)c2n1 (stereo not given),155 to 158
22,O=C(Nc1ccccc1Oc1ccc(C(=O)O)c(C(=O)O)c1)c1cccc([N+](=O)[O-])c1,184 to 190

# Continued, values first:
row,melting point [°C],SMILES
1,74 to 75,COc1ccccc1CC(O)(Cc1cccs1)C(C)(C)C (stereo not given)
2,137 to 142,CC(C)(C)c1ccc(NC(=O)N2CCCC3(CC2)CC(c2ccccc2)=NO3)cc1 (stereo not given)
3,192 to 194,CNC(=O)c1nn(-c2ccc(Cl)cc2)c(=O)c2c(N)scc12
4,158,CN(C)n1c(Cl)n[nH]c1=O
5,72 to 74,OCc1ccc(O)c(CO)c1CNCCCCCCOCC1CCCCC1
6,215 to 217,Cn1nc(O[C@@H]2c3cc(C#N)ccc3OC(CF)(CF)[C@H]2O)ccc1=O (relative stereo)
7,158 to 160,CCCc1nc2c(N)nc3cc(OCCn4cccc4)ccc3c2s1
8,124 to 126,CCCCS(=O)(=O)NC(Cc1ccc(N2CCN(CCC3CCN(C(=O)OC(C)(C)C)CC3)C2=O)cc1)C(=O)OC (stereo not given)
9,257 to 258,CN1CCN(c2cc3c(cc2F)C(=O)c2nc4ccccc4c(=O)n2-3)CC1
10,221,COc1ncccc1-c1ccc(OC2SCC(OC(C)=O)C(OC(C)=O)C2OC(C)=O)c(Cl)n1 (stereo not given)
11,82 to 83,CCN(CC)CCCNC(=O)Cn1ncc(-c2ccc(F)cc2)c1-c1ccccc1
12,209 to 210,Cc1cc(Br)cn2cc(-c3ccc(C#N)cc3)nc12
13,122 to 124,Clc1ccc2nc(CN3CCN(c4ccc(Cl)c(Cl)c4)CC3)cn2c1
14,206 to 209,N=C(N)Nc1nc2ccc(C(F)(F)F)cc2[nH]1
15,100 to 103,CO[C@@H]1OC(C)(C)O[C@@]1(C)c1cccc(OCc2ccc3ccccc3c2)c1 (racemic)
16,95.5 to 98,O=C(CS(=O)(=O)Cc1cccs1)C12CC3CC(CC(C3)C1)C2
17,124 to 126,CCN(CC)c1nc(NCCCCO)nc(Nc2ccc3cc(-c4ccccc4)c(=O)oc3c2)n1
18,174 to 177,O=S(=O)(c1ccc(Cl)cc1)N1CCC[C@@H](Nc2nccc(-c3c(-c4cccc(O)c4)nc4sccn34)n2)C1
19,171 to 174,COCCc1nc2c(N)nc3ccccc3c2n1CCOCCNC(=O)Nc1ccccc1
20,73 to 75,CCC(c1ccc(C(=O)OC)cc1)C(C)NCC(O)c1ccc(O)c(CO)c1 (stereo not given)
21,120 to 122,COc1cc2c(cc1O)CCN(Cc1cccc(OC(C)=O)c1)C2
22,118 to 120,N#Cc1cn(-c2c(Cl)cc(C(F)(F)F)cc2Cl)cc1I
23,220,O=C(O)c1ccc(Cl)c2c1NCCS2
24,71 to 76,COC(=O)CCCC#Cc1cc(Cl)ccc1NS(=O)(=O)c1cccc(OC)c1
25,149,O=S(Cc1cc(OCc2ccc(C(F)(F)F)cc2)ccn1)c1nc2cscc2[nH]1 (stereo not given)
26,113 to 114,C=C1N(Cc2ccccc2)C(=O)OC12CCN(Cc1ccccc1)CC2
27,107 to 109,COC(=O)c1sc(OC)c(Br)c1O
28,128 to 131,COc1ccc(N2CCN(c3c(C)c(C)c4c(c3C)C(c3ccsc3)C(C)(C)O4)CC2)cc1 (stereo not given)
29,142,C[C@@H](CO)Oc1cc(Oc2ccc(C(=O)N3CCC3)cc2F)cc(C(=O)Nc2ccn(C)n2)c1
30,179 to 182,Cc1nc2ccccc2n(-c2ccc(CC(=O)O)cc2)c1=O
